According to patent US20210130401A1, “PEPTIDOMIMETIC INHIBITORS OF THE WDR5-MLL INTERACTION” (THE REGENTS OF THE UNIVERSITY OF MICHIGAN, priority 2017, published 2021):
Read-outs that look alike come from different tables or passages of the source. Blank lines part the entries; values can stand above or below the compound they belong to. Starred links: 1 amine or outer side, 2 acyl side, 3 side chain; linkers in the order of their positions; H or OH if unused. Positions of bridges follow the written chain, without caps; N, C: chain ends. Non-standard residues stand in square brackets, D forms with d. Residues, ends and D or L forms follow the SMILES beside them. *: point of attachment. dαMeLys(Me) = CN(CCCC[C@@](C)(N[*:1])C(=O)[*:2])[*:3]; Arg(Nω,Nω'-propylene) = N[C@@H](CCCNC1=NCCCN1)C(=O)O; dαMeDab = C[C@](CCN[*:3])(N[*:1])C(=O)[*:2]; Arg(Et) = CCNC(=N)NCCC[C@H](N)C(=O)O; Lys(Me2) = CN(C)CCCC[C@H](N)C(=O)O; dCha = N[C@H](CC1CCCCC1)C(=O)O; dPhg = N[C@@H](C(=O)O)c1ccccc1; dOrn = NCCC[C@@H](N)C(=O)O; Isobutyryl = CC(C)C(=O)*; dDap = NC[C@@H](N)C(=O)O; Abu = CC[C@H](N)C(=O)O

What was measured:
[1] = test system: MOLM-13 leukemia cells carrying MLL-AF9 fusion; assay: cell viability assay (WST-8), MOLM-13; assay type: cell-based; settings: Homo sapiens, MOLM-13, 96 h
WDR5 = target: T1, WDR5 (Homo sapiens, UniProt P61964); assay: fluorescence polarization (FP) based competitive binding assay to WDR5 protein
T1 construct: N-terminal His-tagged WDR5 protein (residues 24-334), named WDR5Δ23; made in house; host or cells: E. coli Rosetta 2 (DE3)
Procedure: The plates were incubated at room temperature on a shaker for 3h, and then the mP values were measured using the Tecan Infinite M-1000 plate reader (Tecan U.S., Research Triangle Park, N.C.).

[2] = calculated from IC50 by published equation, read-out: Binding Affinity to WDR5 Ki ± SD
[3] = read-out: Binding Affinity to WDR5 IC50 ± SD
[4] = Table 2A, 4 days treatment, read-out: MOLM-13 IC50

SMILES: CC[C@@H]1NC(=O)[C@H](CCCNC(=N)N)NC(=O)[C@](C)(NC(=O)C(C)C)CCNC(=O)[C@@H](c2ccc3ccccc3c2)NC1=O [Cpd. No. 82, N-((3R,6S,9S,12R)-6-ethyl-9-(3-guanidinopropyl)-12-methyl-3-(naphthalen-2-yl)-2,5,8,11-tetraoxo-1,4,7,10-tetraazacyclotetradecan-12-yl)isobutyramide]
IC50 ([1]; read-out: MOLM-13 IC50 (μM)): 0.054 µM
IC50 (WDR5): 0.0023 µM
Ki (WDR5): < 0.001 µM

Ki (WDR5; [2]): 0.0329 ± 0.0053 µM
IC50 (WDR5; [3]): 0.164 ± 0.026 µM
SMILES: CC[C@@H]1NC(=O)[C@H](CCCNC(=N)N)NC(=O)[C@H](NC(=O)C(C)C)CCCNC(=O)[C@@H](c2ccccc2)NC1=O [Cpd. No. 72, N-((3R,6S,9S,12R)-6-ethyl-9-(3-guanidinopropyl)-2,5,8,11-tetraoxo-3-phenyl-1,4,7,10-tetraazacyclopentadecan-12-yl)isobutyramide] (Isobutyryl-[dOrn]R[Abu][dPhg]; lactam 1-C)

SMILES: CC[C@@H]1NC(=O)[C@H](CCCNC(=N)N)NC(=O)[C@](C)(NC(=O)C(C)C)CCCCN(C)C(=O)[C@@H](c2ccc(Cl)cc2)NC1=O [Cpd. No. 67, N-((3R,6S,9S,12R)-3-(4-chlorophenyl)-6-ethyl-9-(3-guanidinopropyl)-1,12-dimethyl-2,5,8,11-tetraoxo-1,4,7,10-tetraazacyclohexadecan-12-yl)isobutyramide]
IC50 (WDR5): 0.0015 ± 0.0009 µM
Ki (WDR5): < 0.001 µM

Ki (WDR5; [2]): 0.242 ± 0.033 µM
IC50 (WDR5; [3]): 1.19 ± 0.16 µM
SMILES: CC[C@@H]1NC(=O)[C@H](CCCNC(=N)N)NC(=O)[C@H](NC(=O)C(C)C)CNC(=O)[C@@H](c2ccccc2)NC1=O [Cpd. No. 71, N-((3R,6S,9S,12R)-6-ethyl-9-(3-guanidinopropyl)-2,5,8,11-tetraoxo-3-phenyl-1,4,7,10-tetraazacyclotridecan-12-yl)isobutyramide] (Isobutyryl-[dDap]R[Abu][dPhg]; lactam 1-C)

SMILES: CC[C@@H]1NC(=O)[C@H](CCCNC(=N)N)NC(=O)[C@](C)(NC(=O)C(C)C)CCCCN(C)C(=O)[C@@H](c2ccccc2)NC1=O [Cpd. No. 65, N-((3R,6S,9S,12R)-6-ethyl-9-(3-guanidinopropyl)-1,12-dimethyl-2,5,8,11-tetraoxo-3-phenyl-1,4,7,10-tetraazacyclohexadecan-12-yl)isobutyramide] (Isobutyryl-[dαMeLys(Me)]R[Abu][dPhg]; lactam 1-C)
IC50 (WDR5): 0.0016 ± 0.0003 µM
Ki (WDR5): < 0.001 µM

IC50 [1, 4]: 1.88 µM
SMILES: CC[C@@H]1NC(=O)[C@H](CCCNC(=N)N)NC(=O)[C@](C)(NC(=O)C(C)C)CCNC(=O)[C@@H](CC(C)C)NC1=O [Cpd. No. 49, N-((3R,6S,9S,12R)-6-ethyl-9-(3-guanidinopropyl)-3-isobutyl-12-methyl-2,5,8,11-tetraoxo-1,4,7,10-tetraazacyclotetradecan-12-yl)isobutyramide] (Isobutyryl-[dαMeDab]R[Abu][dL]; lactam 1-C)

Ki (WDR5; [2]): 0.0603 ± 0.0119 µM
IC50 (WDR5; [3]): 0.298 ± 0.058 µM
SMILES: CC[C@@H]1NC(=O)[C@H](CCCNC(=N)N)NC(=O)[C@H](NC(=O)C(C)C)CCCCNC(=O)[C@@H](c2ccccc2)NC1=O [Cpd. No. 73, N-((3R,6S,9S,12R)-6-ethyl-9-(3-guanidinopropyl)-2,5,8,11-tetraoxo-3-phenyl-1,4,7,10-tetraazacyclohexadecan-12-yl)isobutyramide] (Isobutyryl-[dK]R[Abu][dPhg]; lactam 1-C)

SMILES: CC[C@@H]1NC(=O)[C@H](CCCNC2=NCC(C)CN2)NC(=O)[C@](C)(NC(=O)C(C)C)CCNC(=O)[C@@H](CC2CCCCC2)NC1=O (stereo partly drawn) [Cpd. No. 97, N-((3R,6S,9S,12R)-3-(cyclohexylmethyl)-6-ethyl-12-methyl-9-(3-((5-methyl-1,4,5,6-tetrahydropyrimidin-2-yl)amino)propyl)-2,5,8,11-tetraoxo-1,4,7,10-tetraazacyclotetradecan-12-yl)isobutyramide]
IC50 ([1]; read-out: MOLM-13 IC50 (μM)): > 10 µM

SMILES: CCNC(=N)NCCC[C@@H]1NC(=O)[C@](C)(NC(=O)C(C)C)CCNC(=O)[C@@H](CC2CCCCC2)NC(=O)[C@H](CC)NC1=O [Cpd. No. 45, N-((3R,6S,9S,12R)-3-(cyclohexylmethyl)-6-ethyl-9-(3-(3-ethylguanidino)propyl)-12-methyl-2,5,8,11-tetraoxo-1,4,7,10-tetraazacyclotetradecan-12-yl)isobutyramide] (Isobutyryl-[dαMeDab][Arg(Et)][Abu][dCha]; lactam 1-C)
IC50 ([1]; read-out: MOLM-13 IC50 (μM)): 3.4 µM

SMILES: CC[C@@H]1NC(=O)[C@H](CCCCN(C)C)NC(=O)[C@](C)(NC(=O)C(C)C)CCNC(=O)[C@@H](c2ccccc2)NC1=O [Cpd. No. 6, N-((3R,6S,9S,12R)-9-(4-(dimethylamino)butyl)-6-ethyl-12-methyl-2,5,8,11-tetraoxo-3-phenyl-1,4,7,10-tetraazacyclotetradecan-12-yl)isobutyramide] (Isobutyryl-[dαMeDab][Lys(Me2)][Abu][dPhg]; lactam 1-C)
IC50 ([1]; read-out: MOLM-13 IC50 (μM)): > 10 µM

SMILES: CC[C@@H]1NC(=O)[C@H](CCCN/C(N)=N/CC(F)(F)F)NC(=O)[C@](C)(NC(=O)C(C)C)CCNC(=O)[C@@H](c2ccccc2)NC1=O [Cpd. No. 22, N-((3R,6S,9S,12R)-6-ethyl-12-methyl-2,5,8,11-tetraoxo-3-phenyl-9-(3-((E)-2-(2,2,2-trifluoroethyl)guanidino)propyl)-1,4,7,10-tetraazacyclotetradecan-12-yl)isobutyramide]
IC50 ([1]; read-out: MOLM-13 IC50 (μM)): > 10 µM

SMILES: CC[C@@H]1NC(=O)[C@H](CCCNC(=N)NC#N)NC(=O)[C@](C)(NC(=O)C(C)C)CCNC(=O)[C@@H](CC2CCCCC2)NC1=O [Cpd. No. 33, N-((3R,6S,9S,12R)-9-(3-(3-cyanoguanidino)propyl)-3-(cyclohexylmethyl)-6-ethyl-12-methyl-2,5,8,11-tetraoxo-1,4,7,10-tetraazacyclotetradecan-12-yl)isobutyramide]
IC50 ([1]; read-out: MOLM-13 IC50 (μM)): 6.5 µM

SMILES: CC[C@@H]1NC(=O)[C@H](CCC(N)=O)NC(=O)[C@](C)(NC(=O)C(C)C)CCNC(=O)[C@@H](c2ccccc2)NC1=O [Cpd. No. 15, N-((3R,6S,12R)-9-(3-amino-3-oxopropyl)-6-ethyl-12-methyl-2,5,8,11-tetraoxo-3-phenyl-1,4,7,10-tetraazacyclotetradecan-12-yl)isobutyramide] (Isobutyryl-[dαMeDab]Q[Abu][dPhg]; lactam 1-C)
IC50 ([1]; read-out: MOLM-13 IC50 (μM)): > 10 µM

SMILES: CC[C@@H]1NC(=O)[C@H](CCCNC2=NCCCN2)NC(=O)[C@](C)(NC(=O)C(C)C)CCNC(=O)[C@@H](CC2CCCCC2)NC1=O [Cpd. No. 40, N-((3R,6S,9S,12R)-3-(cyclohexylmethyl)-6-ethyl-12-methyl-2,5,8,11-tetraoxo-9-(3-((1,4,5,6-tetrahydropyrimidin-2-yl)amino)propyl)-1,4,7,10-tetraazacyclotetradecan-12-yl)isobutyramide] (Isobutyryl-[dαMeDab][Arg(Nω,Nω'-propylene)][Abu][dCha]; lactam 1-C)
IC50 ([1]; read-out: MOLM-13 IC50 (μM)): 0.88 µM

IC50 [1, 4]: 1.57 µM
SMILES: CC[C@@H]1NC(=O)[C@H](CCCNC(=N)N)NC(=O)[C@](C)(NC(=O)C(C)C)CCNC(=O)[C@@H](Cc2ccccc2)NC1=O [Cpd. No. 54, N-((3R,6S,9S,12R)-3-benzyl-6-ethyl-9-(3-guanidinopropyl)-12-methyl-2,5,8,11-tetraoxo-1,4,7,10-tetraazacyclotetradecan-12-yl)isobutyramide] (Isobutyryl-[dαMeDab]R[Abu][dF]; lactam 1-C)

SMILES: CC[C@@H]1NC(=O)[C@H](CCCNC(=N)N)NC(=O)[C@](C)(NC(=O)C(C)C)CCNC(=O)[C@@H](c2ccccc2Cl)NC1=O [Cpd. No. 83, N-((3R,6S,9S,12R)-3-(2-chlorophenyl)-6-ethyl-9-(3-guanidinopropyl)-12-methyl-2,5,8,11-tetraoxo-1,4,7,10-tetraazacyclotetradecan-12-yl)isobutyramide]
IC50 ([1]; read-out: MOLM-13 IC50 (μM)): 2.6 µM
